Test results taken from patent US20260049055A1, “SOLID FORMS OF […] […] USES THEREOF” (Sensorium Therapeutics, Inc., priority 2022, published 2026).

Key:
[1] = Solubility of Freeform Form A in solvents; type: physicochemical
Source text: Freeform Form A was a gum material. The material had the solubility shown below:

[2] = biological target: sodium-dependent serotonin transporter (SERT) (Homo sapiens, UniProt P31645); conditions: reported for naturally occurring material from Sceletium tortuosum; cited from earlier work
sodium-dependent serotonin transporter (SERT), sequence (P31645 whole entry, species assumed): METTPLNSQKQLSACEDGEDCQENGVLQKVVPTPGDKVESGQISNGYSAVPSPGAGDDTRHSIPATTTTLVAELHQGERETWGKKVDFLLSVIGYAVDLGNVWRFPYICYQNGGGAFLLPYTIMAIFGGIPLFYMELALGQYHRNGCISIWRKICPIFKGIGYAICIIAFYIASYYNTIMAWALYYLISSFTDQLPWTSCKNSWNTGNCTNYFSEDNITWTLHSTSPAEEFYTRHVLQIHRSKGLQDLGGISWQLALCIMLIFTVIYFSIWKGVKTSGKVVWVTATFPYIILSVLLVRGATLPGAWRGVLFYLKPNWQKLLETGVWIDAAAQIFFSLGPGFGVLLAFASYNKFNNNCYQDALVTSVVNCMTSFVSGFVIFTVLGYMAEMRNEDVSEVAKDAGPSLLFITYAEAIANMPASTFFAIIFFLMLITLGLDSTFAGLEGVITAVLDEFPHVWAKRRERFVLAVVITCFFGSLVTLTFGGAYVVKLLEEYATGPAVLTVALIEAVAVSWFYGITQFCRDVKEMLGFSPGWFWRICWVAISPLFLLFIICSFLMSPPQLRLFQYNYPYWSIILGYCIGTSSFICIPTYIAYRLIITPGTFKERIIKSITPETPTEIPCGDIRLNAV

Row | Structure (SMILES) | Solubility (mg/mL) ([1]; solvent 1,4-Dioxane) | Solubility (mg/mL) ([1]; solvent 2-MeTHF) | Solubility (mg/mL) ([1]; solvent ACN) | Solubility (mg/mL) ([1]; solvent Acetone) | Solubility (mg/mL) ([1]; solvent CPME) | Solubility (mg/mL) ([1]; solvent DCM) | Solubility (mg/mL) ([1]; solvent EtOH) | Solubility (mg/mL) ([1]; solvent H2O) | Solubility (mg/mL) ([1]; solvent IPA) | Solubility (mg/mL) ([1]; solvent IPAc) | Solubility (mg/mL) ([1]; solvent MIBK) | Solubility (mg/mL) ([1]; solvent MTBE) | Solubility (mg/mL) ([1]; solvent MeOH) | Solubility (mg/mL) ([1]; solvent THF) | serotonin (5-HT) uptake inhibition, in words [2]
1 | COc1ccc([C@@]23CCC(=O)C[C@@H]2N(C)CC3)cc1OC [Freeform Form A, (3aS,7aS)-3a-(3,4-dimethoxyphenyl)-1-methyl-2,3,4,5,7,7a-hexahydroindol-6-one] | S > 40.0 mg/mL | S > 40.0 mg/mL | S > 44.0 mg/mL | S > 40.0 mg/mL | S > 40.0 mg/mL | S > 42.0 mg/mL | S > 42.0 mg/mL | S > 42.0 mg/mL | S > 38.0 mg/mL | S > 36.0 mg/mL | S > 38.0 mg/mL | S > 40.0 mg/mL | S > 36.0 mg/mL | S > 44.0 mg/mL | 
2 | COc1ccc([C@@]23CCC(=O)C[C@@H]2N(C)CC3)cc1OC [Compound 1, (3aS,7aS)-3a-(3,4-dimethoxyphenyl)-1-methyl-2,3,4,5,7,7a-hexahydroindol-6-one] |  |  |  |  |  |  |  |  |  |  |  |  |  |  | serotonin (5-HT) uptake inhibitory activity
